Source: US20040054292A1, “Non-invasive apparatus system for monitoring autonomic nervous system and uses thereof” (INDUSTRIAL TECHNOLOGY RESEARCH INSTITUTE, priority 2002, published 2004)

How the values were obtained:
[1] = system: autonomic nervous system; experiment: Heart rate variability (ECG spectral analysis) in apoplectic patients complicated with hypertension before and after drug; format: in vivo, human; conditions: labetalol 12.5 mg injected
Experimental: In this human experiment, the non-invasive apparatus system of the invention was used to monitor the autonomic nervous system functional change side effects caused by drugs. Four (two females and two males) apoplectic patients complicated with hypertension at the age of 77.3±8.8 (± means standard deviation) were chosen in the study. The patients were divided into two groups: (1) the control group and (2) the labetalol group (the experiment group). All patients, 5 minutes before administrating the drug, were classified as the control group. After being treated/injected with labetalol (12.5 mg) for 5 minutes, the patients became the labetalol group. Labetalol is an α and β combined epinephrine antagonist (a sympathetic hormone epinephrine blocker) for lowering blood pressure. Treatment and analysis of the electrocardiograph (ECG) were conducted similarly to those recited in Example 1, except that the ranges of the frequencies were determined based on those of humans. The power of each frequency range comprising variance, low frequency power (0.04-0.15 Hz) and high frequency power (0.15-0.4 Hz) was quantified by integration. Parameters of the ratios of low frequency/high frequency (LF/HF ratio) and low frequency rate (LF%) were also calculated at the same time. The values of variance, LF, HF and LF/HF were logarithmically transformed to correct the distribution bias. All data were presented as mean ±SD, and the differences between the experimental and control groups were examined by paired t-test, wherein a value of p<0.05 is considered as the data having a statistic meaning. […] Variance and HF responses were uncertain (P>0.05). In light of the results of the experiment, it has been proven that non-invasive apparatus system of the invention can be used in patients for monitoring autonomic nervous system functional change side effects caused by drugs.

[2] = system: autonomic nervous system; experiment: Heart rate variability spectral analysis in anesthetized rats after intravenous drug; format: in vivo, Sprague-Dawley rats; conditions: for high frequency (index of parasympathetic nervous activity): 0.5 to 2.4 Hz
Experimental: Matured male Sprague-Dawley rats (weighed 250-350 g) were first sensitizing anesthetized by intraperitoneal injecting of pentobarbital sodium (50 mg/kg) and then were general anesthetized by continuously infusion with pentobarbital sodium (15 mg/kg). The rats were intubated in both femoral veins, wherein one was used for continuously dropping anesthesia and the other was used for delivering testing drug. The rates were tracheal intubated to connect with a respirator (Havard 683) for mechanical respiration. In addition, the skeletal muscle of the whole body of the animals was anesthetized by administrating pancuronium. In order to record the artery pressure, the intubation at the right femoral artery was linked to a PE-50 tube connected with a syringe pre-filled with heparinized saline (200 unit/mL). The artery pressure and heart rate were recorded by a pressure sensory machine ([…], Hewlett-Packard) in the tube. The artery pressure was converted by a pressure converter (Statham, P231D, frequency range: DC to 200 Hz), amplified by a pre-amplifier (Gould, G-13-4615-52), and then filtered (DC to 100 Hz). Electrocardiograph signal was recorded by a second guided electrocardiograph recorder. The signal was amplified by a pre-amplifier(Gould G-20-4615-58) and then filtered (3-300 Hz). At the same time, the signal and the artery pressure were caught by a 12 bit analog-digital converter in an analyzing computer in a frequency of 256 points per second in every channel. The computer used was an IBM-PC compatible type comprising an Intel 80486 micro processor and a 4 MB memory. The Heart rate signals (digital blood pressure signal or electrocardiograph signal) were simultaneously and continuously on-line analyzed by the Fast Fourier Transform method, and the power of each special frequency interval was quantified by integration. High frequency (frequency between 0.5 to 2.4 Hz) in spectrum was considered as an index of parasympathetic nervous function, low frequency % [=100× low frequency/(high frequency+low frequency)] was considered as an index of sympathetic nervous function, and the means of heart rate period and variance were considered as references. The rats were divided into three groups, and each group had 4 to 6 animals. A group of animals were intravenously administered with yohimbine (1 mg/kg), which is a central nervous system α2 receptor antagonist being able to stimulate sympathetic nervous functions and inhibit parasympathetic nervous functions. Another group of animals was intravenously administered with guanabenz (100 μg/kg), which is a central nervous system α2 receptor agonist being able to inhibit sympathetic nervous functions and stimulate parasympathetic nervous functions. The animals administered with saline of the same volume was classified as a controlled group. Prior to applying the drugs, basal blood pressure, mean value of heart rate period and spectral analysis were measured for about 10 minutes, and after the drugs being intravenously administered, the effects of the drugs were measured for 30 minutes. […] Therefore, low frequency % is shown to be a valid index of the sympathetic nervous activity, and high frequency an index of the parasympathetic nervous activity, respectively. […]

[3] = 5 minutes after vs before, P>0.05, FIG. 4
[4] = 5 minutes after vs before, p<0.05, FIG. 4
[5] = yohimbine 1 mg/kg intravenously, FIG. 3
[6] = guanabenz 100 μg/kg intravenously, FIG. 2
[7] = guanabenz 100 μg/kg intravenously, measured for 30 minutes after drug, FIG. 2

## CC(CCc1ccccc1)NCC(O)c1ccc(O)c(C(N)=O)c1 (stereo not drawn) [labetalol]
[1]; 5 minutes after vs 5 minutes before, four patients, p<0.05, FIG. 4
  heart rate period: increased
[1]; [3]
  HF response: uncertain
  Variance response: uncertain
[1]; [4]
  LF % (index of heart sympathetic nervous activity): decreased
  LF/HF (index of heart sympathetic nervous activity): decreased

## COC(=O)[C@@H]1[C@H]2C[C@H]3c4[nH]c5ccccc5c4CCN3C[C@@H]2CC[C@@H]1O [yohimbine]
[2]; [5]
  high frequency (index of parasympathetic nervous activity): lowered
  heart rate period: lowered
  low frequency % (index of sympathetic nervous activity): tremendously increased

## N=C(N)N/N=C/c1c(Cl)cccc1Cl [guanabenz]
[2]; [6]
  high frequency (index of parasympathetic nervous activity): increased
  low frequency % (index of sympathetic nervous activity): tremendously lowered
[2]; [7]
  heart rate period: increased
  heart rate variability: increased
